From US10968183B2, “Small molecule FIEL1 inhibitor in inflammatory and fibrotic lung injury” (UNIVERSITY OF PITTSBURGH—OF THE COMMONWEALTH SYSTEM OF …, priority 2015, dated 2021)

What was measured:
[1] = target: T1, FIEL1 (Mus musculus, UniProt Q8CHG5); experiment: PIAS4 protein immunoblot in MLE cells exposed to compounds; assay type: cell-based, murine; details: 18 h, FIG. 7D
T1 construct: endogenous in cells; host or cells: MLE (murine lung epithelial) cells
T1 sequence (Q8CHG5 1-789): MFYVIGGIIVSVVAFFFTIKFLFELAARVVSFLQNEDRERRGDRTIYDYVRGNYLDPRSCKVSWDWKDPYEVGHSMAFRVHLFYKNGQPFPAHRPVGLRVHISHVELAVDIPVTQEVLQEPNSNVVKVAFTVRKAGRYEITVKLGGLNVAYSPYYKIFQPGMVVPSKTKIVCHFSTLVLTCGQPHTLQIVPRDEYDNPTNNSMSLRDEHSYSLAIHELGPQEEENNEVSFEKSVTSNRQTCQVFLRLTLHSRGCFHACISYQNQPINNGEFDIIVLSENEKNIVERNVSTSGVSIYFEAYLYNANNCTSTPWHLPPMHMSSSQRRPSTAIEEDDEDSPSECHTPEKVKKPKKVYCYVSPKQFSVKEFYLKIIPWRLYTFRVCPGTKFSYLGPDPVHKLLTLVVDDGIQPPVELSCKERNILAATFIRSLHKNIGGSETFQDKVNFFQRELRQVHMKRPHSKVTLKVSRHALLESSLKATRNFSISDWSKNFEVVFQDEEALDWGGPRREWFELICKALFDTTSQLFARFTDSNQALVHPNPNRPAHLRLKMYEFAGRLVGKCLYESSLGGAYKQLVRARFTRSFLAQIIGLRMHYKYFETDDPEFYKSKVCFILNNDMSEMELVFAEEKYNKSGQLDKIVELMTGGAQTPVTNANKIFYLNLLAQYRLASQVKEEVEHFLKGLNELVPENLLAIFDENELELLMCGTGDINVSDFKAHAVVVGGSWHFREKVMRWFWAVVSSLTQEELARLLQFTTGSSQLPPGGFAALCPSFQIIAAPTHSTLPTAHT
Method: FIG. 7A. […] FIG. 7B. Structures of the BC-1480 backbone and lead compound BC-1485. FIG. 7C. FIEL1 protein was HIS-purified from FIEL1 expression in 293T cells using cobalt beads. Beads were then extensively washed prior to exposure to BC-1480 or BC-1485 at different concentrations (10^−4 to 100 μM). Purified PIAS4 protein was then incubated with drug-bound FIEL1 beads overnight. Beads were washed, and proteins were eluted and resolved on SDS-PAGE. The relative amounts of PIAS4 detected in the pull-downs was normalized to loading and quantified (n=2). FIG. 7D. MLE cells were exposed to BC-1480 or BC-1485 at various concentrations for 18 h. Cells were then collected and immunoblotted. FIGS. 7E-J. C57BL/6J mice were administered with bleomycin (0.05 U) for 7-21 days. Compounds BC-1480 and BC-1485 were given to mice through drinking water with an estimated dose of 5 mg/kg/d. Mice were euthanized, and lungs were lavaged with saline, harvested, and then homogenized. Lavage proteins, CXCL1, and total cell count were measured in FIGS. 7E-G. H. Survival studies of mice that were given bleomycin and compound treatments. Mice were carefully monitored over time; moribund, preterminal animals were immediately euthanized and recorded as deceased. […] Hydroxyproline contents were measured in lungs from 7, 14, and 21d after bleomycin challenge. […]

[2] = test system: KIAA0317 and PIAS4 mRNA; experiment: PIAS4 and KIAA0317 mRNA analysis (RT-qPCR); assay type: cell-based; details: treatment for 18 h; FIG. 15G
Method: FIG. 15A. Diagram of the BC-1485 synthesis process. FIGS. 15B-15C. Docking studies of the lead compound, BC-1485, interacting with the FIEL1-HECT domain. FIG. 15D. MRC5 cells were treated with the compound at various doses; cells were also co-treated with TGFβ at 2 ng/ml. 18 h later, cells were collected and assayed for α-SMA expression. FIG. 15E. MRC5 cells were seeded in 35 mm glass bottom dishes before co-treatment with TGFβ at 2 ng/ml and BC-1480 or BC1485 at 5μM. FIG. 15F. PIAS4 protein half-life determination after BC-1480 or BC1485 treatment at 5μM for 18 h. FIG. 15G. PIAS4 and KIAA0317 mRNA analysis after BC1485 treatment for 18 h.
Total RNA was isolated and reverse transcription was performed followed by real-time quantitative PCR with SYBR Green qPCR mixture as described in Butler et al. J. Biol. Chem. 2010, […]: 6246-6258. All mutant PIAS4 and KIAA0317 plasmid constructs were generated using PCR-based approaches and appropriate primers and subcloned into a pcDNA3.1D/V5-HIS vector.

## CC(NC(=O)c1ccc(NS(=O)(=O)c2ccc3[nH]c(=O)[nH]c3c2)cc1)C(=O)N(C)C (stereo not drawn) [BC-1485]
[1]
  activity in increasing PIAS4 protein levels compared to BC-1480: > 100 fold
[2]
  KIAA0317 mRNA levels: did not significantly alter
  PIAS4 mRNA levels: did not significantly alter
